pKi: −log10 of the molar value.
What was measured:
human GCGR = target: T1, human GCGR (Homo sapiens, UniProt P47871); assay: Cellular functional assay, cAMP readout: inhibition of glucagon stimulated cAMP; format: cell-based
T1 construct: expressed in transfected cells; host or cells: HEK293 (hGluc-1HEK), pcDNA3.1, G418 selection
Protocol: IC50 Values in Cellular Functional Assays: cAMP Readout
Full-length human GCGR (Accession Number: NM000160) subcloned into pcDNA3.1 was stably transfected into HEK293 cells (hGluc-1HEK) and maintained under G418 selection (500 μg/mL). Cell cultures were maintained in DMEM/F12 media supplemented with 10% FBS and 1% GlutaMax™ Supplement (Available from ThermoFisher Scientific, catalog #35050061). Glucagon stimulated cAMP was quantified using LANCE technology as per manufacturer instructions. On the day of the experiment, spent media was removed and cells were washed with Hank's Buffered Saline solution (HBSS), and cells harvested with non-enzymatic cell dissociation solution, then washed once with HBSS. Cells were re-suspended in stimulation buffer at a concentration of 0.83×10^6 cells/ml and cAMP detection antibody was added. 6 μl/well of this solution was then dispensed in a 384 well plate (cell density 5000 cells/well). Test compound was serially diluted in DMSO and 50 nl were dispensed on top of the cell solution and allowed to incubate for 30 minutes. 6 μl of a 2× glucagon solution (final concentration in assay 100 pM) was then added and the reaction was terminated after 5 minutes with the addition of detection mix. The resulting mixture was incubated, protected from light for 1.5 h. cAMP levels were quantified by TR-FRET in an EnVision instrument against a known standard. IC50's were generated by using a non-linear regression macro driven in Excel and converted to Ki values.

glucagon receptor = assay: Glucagon challenge in vivo assay measuring blood glucose (normal dog glucagon challenge test); settings: male beagle dogs; 10 mg/kg oral gavage
Protocol: Glucagon Challenge In Vivo Assay Measuring Blood Glucose
The efficacy of a glucagon receptor antagonist was evaluated using a normal dog glucagon challenge test. Male beagle dogs were overnight fasted prior to the study. Test compound (at 3 mg/kg and 10 mg/kg for Compound #196 and at 10 mg/kg for Compounds #180, #248 and #253) or vehicle (0.5% hydroxypropyl methylcellulose) was dosed via oral gavage. Ninety minutes later, the dogs (1.5 years old, ˜9 Kg) were submitted to a glucagon challenge test by a single intramuscular injection of glucagon (Glucagon, rDNA origin, Eli Lilly, Indianapolis, Ind.) at dose of […]. Blood glucose levels were determined at times −10 min, 0 min (on challenge), 10 min, 20 min, 30 min, and 60 min after glucagon injection.

T1 sequence (P47871 26-477): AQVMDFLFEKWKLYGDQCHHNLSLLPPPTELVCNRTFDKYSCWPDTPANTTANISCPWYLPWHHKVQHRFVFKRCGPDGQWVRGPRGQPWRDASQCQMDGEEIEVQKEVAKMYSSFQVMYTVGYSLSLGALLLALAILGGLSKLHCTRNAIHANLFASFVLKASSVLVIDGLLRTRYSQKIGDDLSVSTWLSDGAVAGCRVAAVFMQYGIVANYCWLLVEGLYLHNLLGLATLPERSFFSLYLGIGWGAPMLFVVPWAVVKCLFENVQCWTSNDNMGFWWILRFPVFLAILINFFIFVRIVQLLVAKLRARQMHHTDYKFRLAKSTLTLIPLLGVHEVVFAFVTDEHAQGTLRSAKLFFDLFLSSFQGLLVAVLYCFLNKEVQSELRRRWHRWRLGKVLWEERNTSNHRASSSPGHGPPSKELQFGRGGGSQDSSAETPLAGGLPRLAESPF

Row | SMILES | pKi (human GCGR) | blood glucose levels during glucagon challenge time compared with vehicle treated group (glucagon receptor)
1 | O=C(O)CCNC(=O)c1ccc(C(CCc2ccccc2)n2cc3cc(-c4ccc(C(F)(F)F)cc4)ccc3n2)cc1 (stereo not shown) [Compound 104] | 6.84 | 
2 | Cc1c(-c2ccc(C(F)(F)F)cc2Cl)ccc2nn([C@@H](CC(C)C)c3ccc(C(=O)NCCC(=O)O)cc3)cc12 [Compound 180, 3-[[4-[(1S)-1-[5-[2-Chloro-4-(trifluoromethyl)phenyl]-4-methyl-indazol-2-yl]-3-methyl-butyl]benzoyl]amino]propanoic Acid] |  | markedly reduced blood glucose levels
3 | O=C(O)CCNC(=O)c1ccc(C(CCc2ccccc2)n2ncc3cc(-c4ccc(C(F)(F)F)cc4)ccc32)cc1 (stereo not shown) [Compound 142] | 6.07 | 
4 | COc1ccc(-c2ccc3c(cnn3C(CC(C)C)c3ccc(CNCCC(=O)O)cc3)c2)cc1 (stereo not shown) [Compound 38, 3-((4-(1-(5-(4-Methoxyphenyl)-1H-indazol-1-yl)-3-methylbutyl)benzyl)amino)propanoic Acid] | 6.19 | 
5 | Cc1cc(C(F)(F)F)ccc1-c1ccc2c(cnn2C(CC(C)C)c2ccc(CNCCC(=O)O)cc2)c1 (stereo not shown) [Compound 84, 3-((4-(3-Methyl-1-(5-(2-methyl-4-(trifluoromethyl)phenyl)-1H-indazol-1-yl)butyl)benzyl)amino)propanoic Acid] | 7.07 | 
6 | COCCC(c1ccc(C(=O)NCCC(=O)O)cc1)n1cc2cc(-c3ccc(C(F)(F)F)cc3)ccc2n1 (stereo not shown) [Compound 202] | 5.96 | 
7 | CC(C)CC(c1ccc(CNCCC(=O)O)cc1)n1ncc2cc(-c3cc(Cl)cc(Cl)c3)ccc21 (stereo not shown) [Compound 118, 3-((4-(1-(5-(3,5-Dichlorophenyl)-1H-indazol-1-yl)-3-methylbutyl)benzyl)amino)propanoic Acid] | 5.65 | 
8 | O=C(O)CCNC(=O)c1ccc(C(CCC2CCCCC2)n2cc3cc(-c4ccc(C(F)(F)F)cc4)ccc3n2)cn1 (stereo not shown) [Compound 186] | 6.56 | 
9 | CC(C)CC(c1ccc(CNCCC(=O)O)cc1)n1ncc2cc(-c3ccc(OC(F)(F)F)cc3)ccc21 (stereo not shown) [Compound 10, 3-((4-(3-Methyl-1-(5-(4-(trifluoromethoxy)phenyl)-1H-indazol-1-yl)butyl)benzyl)amino)propanoic Acid] | 6.55 | 
10 | Cc1cc(Cl)ccc1-c1ccc2nn(C(CCC3CCCCC3)c3ccc(C(=O)NCCC(=O)O)nc3)cc2c1 (stereo not shown) [Compound 184] | 7.15 | 

Source: patent US11098016B2, “Indazole derivatives useful as glucagon receptor antagonists” (JANSSEN PHARMACEUTICA NV, priority 2016, dated 2021)
